For orientation: kinetic solubility means solubility judged after dilution from a stock solution rather than from solid.

We go through 52 molecules from PubChem BioAssay AID1996.

Converted amounts (≈) assume the structure as drawn.

The conditions of the data set: buffer; pH 7.4; 200.0 µM.
Consider `C[C@@H]1CN(Cc2nc(-c3cccs3)no2)C[C@H](C)O1`, for which the solubility (kinetic) turned out to be 38 µg/mL (≈ 136 µM).
In the case of `N/C(=N\OC(=O)CC1CCCCC1)c1cccc(Br)c1` it was 0.6 µg/mL (≈ 1.77 µM); in that of `CC(CC(=O)O)CC(=O)Nc1cccc([N+](=O)[O-])c1` (configuration not stated), greater than 39.9 µg/mL.
Consider `COc1ccc(CC(=O)Nc2nc(C(C)(C)C)cs2)cc1`, for which the kinetic solubility amounted to 2.1 µg/mL (≈ 6.9 µM).
`Cc1cc(C)c(N2C(=O)CCCC2=O)c(Cl)c1`: the kinetic solubility was greater than 37.8 µg/mL.
`COCC(=O)Nc1ccc(OC)c(Cl)c1` displayed a kinetic solubility of 33.8 µg/mL (≈ 147 µM).
Regarding `CCOC(=O)c1c2c3c(cccc3[nH]c1=O)C(=O)c1ccccc1-2`, the kinetic solubility was less than 0.7 µg/mL.
The value for `O=[N+]([O-])c1c(Nc2ccc(Br)cc2)ccc2nonc12` was less than 0.2 µg/mL; that for `COc1ccccc1N1CCN(C(=O)c2cc3cc(F)ccc3[nH]2)CC1` was 0.7 µg/mL (≈ 1.98 µM).
The value for `CCC1C(=O)NCCN1Cc1nc(-c2ccc(C)s2)oc1C` (configuration not stated) was 39.3 µg/mL (≈ 123 µM); that for `CC12CCC(C1)C(C)(C)C2NS(=O)(=O)c1ccc(F)cc1` (configuration not stated) was 6.9 µg/mL (≈ 22.2 µM); that for `N#Cc1ccc(OCC(=O)NC2CCCCCC2)cc1` was greater than 40.9 µg/mL.
In the case of `COc1ccc(C(=O)N2CCCC(C(=O)O)C2)c2ccccc12` (configuration not stated) it was greater than 47 µg/mL; in that of `Cc1ccc(-c2cc(C(=O)NCC3CCCO3)c3ccccc3n2)cc1C` (configuration not stated), 4.7 µg/mL (≈ 13 µM).
Consider `COC(=O)[C@H](Cc1ccccc1)NC(=O)c1ccc2ccccc2n1`, for which the solubility (kinetic) stood at 23.6 µg/mL (≈ 70.6 µM). This solubility kinetic lies about 5-fold higher than the previous one.
The value for `Cc1ccc(C)c(OCCCN2CCc3ccccc3C2)c1.Cl` was 14 µg/mL; that for `CC(=O)c1ccc(OC(C)c2nc3ccccc3s2)cc1` (configuration not stated) was 13.1 µg/mL (≈ 44.1 µM).
In the case of `N#Cc1ccccc1OCC(=O)OCC(=O)NC1CC1` it was greater than 41.1 µg/mL; in that of `CCn1cc(S(=O)(=O)Nc2cccnc2)cn1`, greater than 37.8 µg/mL; in that of `O=C(NCCCCc1ccccc1)c1cccc(Br)c1`, 9.6 µg/mL (≈ 28.9 µM).
In the case of `Cn1c(=O)c2c(ncn2CC(=O)Nc2cc(S(=O)(=O)N3CCCCC3)ccc2Cl)n(C)c1=O` it was 10.5 µg/mL (≈ 21.2 µM); in that of `O=C(CN1C(=O)NC2(CCCCCC2)C1=O)Nc1ccc([N+](=O)[O-])cc1`, 13.3 µg/mL (≈ 36.9 µM).
With `CC1(C)N([O-])C2=C(CCCC2)[N+]1=O`, the kinetic solubility was greater than 27.3 µg/mL.
In the case of `Cc1cc(Nc2ccccc2Cl)c2ccccc2n1` it was greater than 40.3 µg/mL; in that of `COc1ccc(CCNCc2sccc2C)cc1OC.Cl`, 36 µg/mL; in that of `CCC(O)c1nc2ccccc2n1CCc1ccccc1` (configuration not stated), 17.1 µg/mL (≈ 61 µM).
In turn, `CC1=C(c2ccccc2)C(=S)NC(C)(C)C1` registered a kinetic solubility of 2.5 µg/mL (≈ 10.8 µM).
The value for `COc1ccc(OC)c(-c2c3c([nH]c(=S)c2C#N)CCCC3)c1` was 10.4 µg/mL (≈ 31.9 µM).
In the case of `Nc1c(C(=O)[O-])sc2nc3c(cc12)CCCC3` it was 23.2 µg/mL; in that of `Cc1nc(C)c(C(=O)OCC(=O)NCc2ccccc2)s1`, greater than 45.7 µg/mL.
`COc1ccc(/C(N)=N/OC(=O)C2CCCCC2)cc1OC` yielded a kinetic solubility of 35.2 µg/mL (≈ 115 µM).
The value for `N#Cc1ccccc1NC(=O)c1ccc2c(c1)OCO2` was 10.8 µg/mL (≈ 40.6 µM); that for `O=C(O)c1ccccc1C(=O)Nc1nc(-c2ccccc2)cs1` was 43.2 µg/mL (≈ 133 µM).
As to `CS(=O)(=O)Nc1ccc2c(c1)ncn2CCc1ccccc1`, the kinetic solubility was greater than 47.3 µg/mL.
Turning to `CN(CC(=O)Nc1ccccc1C(F)(F)F)C(=O)CSc1nnc(-c2ccncc2)n1C`, the solubility (kinetic) is greater than 69.7 µg/mL.
The value for `CC(Oc1ccccc1)C(=O)OCC(=O)NC(=O)NC1CCCCC1` (configuration not stated) was 47.7 µg/mL (≈ 137 µM); that for `COC(=O)C1=C(N)OC2=C(C(=O)CCC2)C1c1ccccc1OC` (configuration not stated) was 14.5 µg/mL (≈ 44 µM); that for `CCC(CC)C(=O)N1CC(=O)Nc2ccc(C)cc2C1c1ccccc1` (configuration not stated) was 2.4 µg/mL (≈ 6.85 µM).
Take `CSCC[C@H](NC(=O)Nc1ccc(OC(F)(F)F)cc1)C(=O)O`: the solubility (kinetic) is greater than 52.8 µg/mL.
In the case of `Cn1ncc(Cl)c1C(=O)NC1CCCC1` it was greater than 34.2 µg/mL; in that of `FC(F)(F)c1ccccc1-n1ccnc1`, 30.2 µg/mL (≈ 142 µM).
In turn, `O=C(NCC1CCCO1)c1ccc(NC(=O)c2ccc(Br)cc2)cc1` (configuration not stated) returned a kinetic solubility of 1.2 µg/mL (≈ 2.98 µM). This solubility kinetic lies about 25-fold lower than the previous one.
The value for `CCN(CC)CCOC(=O)c1ccc([N+](=O)[O-])cc1.Cl` was greater than 45.4 µg/mL.
On to `C=C(C)Cn1c(CCNC(=O)c2ccco2)nc2ccccc21`, for which the kinetic solubility was greater than 46.4 µg/mL.
In the case of `O=C(/C=C/c1ccco1)N(Cc1ccccc1)C1CCS(=O)(=O)C1` (configuration not stated) it was 47.1 µg/mL (≈ 136 µM); in that of `COC(=O)CN1C(=O)NC2(CCCc3ccccc32)C1=O` (configuration not stated), greater than 43.2 µg/mL; in that of `Nc1ccc2nc3c(c(Cl)c2c1)CCCC3`, 25.1 µg/mL (≈ 108 µM).
Regarding `COc1ccc(NC(=O)c2cc(=O)[nH]c3ccccc23)cc1`, the kinetic solubility was determined as 2.1 µg/mL (≈ 7.14 µM). This solubility kinetic lies about 12-fold lower than the previous one.
Take `CCCn1c(=O)c(C(=O)Nc2ncccc2O)c(O)c2ccccc21`: the solubility (kinetic) turned out to be 4.1 µg/mL (≈ 12.1 µM).
In the case of `COc1ccc(CNC(=O)N[C@H](C(=O)O)C(C)C)cc1OC` it was greater than 46.6 µg/mL; in that of `Cc1csc(SCC(=O)Nc2ccccc2)n1`, 35.5 µg/mL (≈ 134 µM).
The value for `O=C(Nc1ccc(F)cc1F)c1ccccc1NC(=O)C1CC=CCC1C(=O)O` (configuration not stated) was 59.7 µg/mL (≈ 149 µM).
